Experimental data as given in ChEMBL document CHEMBL5291721, “A preclinical secondary pharmacology resource illuminates target-adverse drug reaction associations of marketed drugs” (Nat Commun, 2023).

Tests used:
[1] = target: T1, 5-hydroxytryptamine receptor 1A (Homo sapiens, UniProt P08908)
T1 sequence (P08908 whole entry): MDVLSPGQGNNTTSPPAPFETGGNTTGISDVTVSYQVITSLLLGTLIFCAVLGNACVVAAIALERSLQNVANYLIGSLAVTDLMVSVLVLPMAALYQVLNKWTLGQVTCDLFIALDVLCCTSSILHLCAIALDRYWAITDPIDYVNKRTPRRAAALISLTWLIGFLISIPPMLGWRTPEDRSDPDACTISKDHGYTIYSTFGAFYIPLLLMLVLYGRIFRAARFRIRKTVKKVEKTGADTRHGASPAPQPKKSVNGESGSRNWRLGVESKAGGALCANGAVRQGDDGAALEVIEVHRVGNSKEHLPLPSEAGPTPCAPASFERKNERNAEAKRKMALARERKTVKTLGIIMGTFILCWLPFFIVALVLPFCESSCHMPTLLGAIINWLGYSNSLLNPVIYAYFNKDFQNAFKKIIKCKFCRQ

[2] = target: T2, Sodium-dependent dopamine transporter (Homo sapiens, UniProt Q01959)
T2 sequence (Q01959 whole entry): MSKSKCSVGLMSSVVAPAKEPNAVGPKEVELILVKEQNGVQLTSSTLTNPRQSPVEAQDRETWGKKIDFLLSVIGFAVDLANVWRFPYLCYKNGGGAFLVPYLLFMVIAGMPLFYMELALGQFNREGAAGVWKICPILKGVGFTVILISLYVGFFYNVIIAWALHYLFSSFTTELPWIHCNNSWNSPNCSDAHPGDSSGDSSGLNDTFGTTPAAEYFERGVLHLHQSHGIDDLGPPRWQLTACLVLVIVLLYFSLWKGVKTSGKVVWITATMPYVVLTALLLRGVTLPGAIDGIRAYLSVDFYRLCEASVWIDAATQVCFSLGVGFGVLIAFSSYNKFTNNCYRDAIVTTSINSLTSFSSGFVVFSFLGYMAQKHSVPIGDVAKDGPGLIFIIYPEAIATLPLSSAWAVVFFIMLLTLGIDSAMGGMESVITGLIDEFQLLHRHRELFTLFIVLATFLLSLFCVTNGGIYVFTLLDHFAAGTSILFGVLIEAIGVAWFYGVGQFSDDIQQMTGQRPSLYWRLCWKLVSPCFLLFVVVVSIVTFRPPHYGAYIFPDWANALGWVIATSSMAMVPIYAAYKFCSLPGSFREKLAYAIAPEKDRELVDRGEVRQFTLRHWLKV

Thromboxane A2 receptor = target: T3, Thromboxane A2 receptor (Homo sapiens, UniProt P21731); format: functional, cell-based
T3 sequence (P21731 whole entry): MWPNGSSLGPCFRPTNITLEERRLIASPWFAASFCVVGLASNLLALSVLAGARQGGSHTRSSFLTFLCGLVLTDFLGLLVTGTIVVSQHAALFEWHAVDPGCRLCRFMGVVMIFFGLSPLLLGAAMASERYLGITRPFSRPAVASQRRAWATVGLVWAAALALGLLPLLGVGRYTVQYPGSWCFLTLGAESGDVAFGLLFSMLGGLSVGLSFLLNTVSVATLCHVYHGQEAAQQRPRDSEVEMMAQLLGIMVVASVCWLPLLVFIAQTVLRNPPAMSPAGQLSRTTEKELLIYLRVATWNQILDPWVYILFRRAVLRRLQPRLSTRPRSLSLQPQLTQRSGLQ

[3] = target: Sodium-dependent noradrenaline transporter (Homo sapiens, UniProt P23975)
Chain of Sodium-dependent noradrenaline transporter (P23975 whole entry): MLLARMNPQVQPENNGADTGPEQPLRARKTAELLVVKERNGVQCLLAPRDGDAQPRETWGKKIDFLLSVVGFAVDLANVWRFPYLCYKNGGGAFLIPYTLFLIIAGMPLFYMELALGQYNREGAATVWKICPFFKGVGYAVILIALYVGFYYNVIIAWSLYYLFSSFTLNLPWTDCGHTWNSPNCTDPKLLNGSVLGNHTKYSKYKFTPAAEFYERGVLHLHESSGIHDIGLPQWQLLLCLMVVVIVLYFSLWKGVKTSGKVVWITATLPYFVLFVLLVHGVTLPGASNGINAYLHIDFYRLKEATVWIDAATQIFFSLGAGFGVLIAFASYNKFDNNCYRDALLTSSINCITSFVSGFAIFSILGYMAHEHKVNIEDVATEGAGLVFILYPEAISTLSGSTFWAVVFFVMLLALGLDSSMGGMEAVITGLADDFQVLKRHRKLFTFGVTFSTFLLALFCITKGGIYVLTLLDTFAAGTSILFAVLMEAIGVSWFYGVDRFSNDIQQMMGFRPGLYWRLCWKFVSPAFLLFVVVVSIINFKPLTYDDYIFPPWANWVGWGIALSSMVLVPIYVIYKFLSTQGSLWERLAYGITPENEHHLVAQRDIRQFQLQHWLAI

[4] = target: T4, Alpha-2A adrenergic receptor (Homo sapiens, UniProt P08913)
T4 sequence (P08913 whole entry): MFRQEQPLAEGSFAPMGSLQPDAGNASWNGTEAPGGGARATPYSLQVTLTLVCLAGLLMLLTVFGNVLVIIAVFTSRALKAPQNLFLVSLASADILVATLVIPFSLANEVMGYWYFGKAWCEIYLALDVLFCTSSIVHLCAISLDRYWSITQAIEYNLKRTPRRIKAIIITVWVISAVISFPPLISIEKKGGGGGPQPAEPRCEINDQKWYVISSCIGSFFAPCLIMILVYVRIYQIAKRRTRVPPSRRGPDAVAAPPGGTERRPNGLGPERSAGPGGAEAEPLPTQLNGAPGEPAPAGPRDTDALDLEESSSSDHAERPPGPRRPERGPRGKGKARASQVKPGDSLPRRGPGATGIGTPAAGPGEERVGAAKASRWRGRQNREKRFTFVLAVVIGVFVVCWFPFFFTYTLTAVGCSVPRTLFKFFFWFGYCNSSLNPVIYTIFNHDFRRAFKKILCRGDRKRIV

[5] = target: 5-hydroxytryptamine receptor 2B (Homo sapiens, UniProt P41595); format: functional, cell-based
Chain of 5-hydroxytryptamine receptor 2B (P41595 whole entry): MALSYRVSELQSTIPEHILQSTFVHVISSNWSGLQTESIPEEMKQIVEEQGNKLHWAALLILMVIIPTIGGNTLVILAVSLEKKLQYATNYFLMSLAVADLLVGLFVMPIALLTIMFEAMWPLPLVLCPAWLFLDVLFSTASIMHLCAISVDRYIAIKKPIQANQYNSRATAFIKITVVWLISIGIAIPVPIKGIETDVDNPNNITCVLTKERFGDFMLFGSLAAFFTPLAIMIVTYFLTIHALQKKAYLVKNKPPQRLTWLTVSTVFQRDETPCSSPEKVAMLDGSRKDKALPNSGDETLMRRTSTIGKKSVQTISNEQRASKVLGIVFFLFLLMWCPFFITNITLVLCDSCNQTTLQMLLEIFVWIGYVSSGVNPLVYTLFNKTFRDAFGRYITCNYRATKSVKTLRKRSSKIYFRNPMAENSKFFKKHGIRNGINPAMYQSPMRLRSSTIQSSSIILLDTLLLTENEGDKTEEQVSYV

Vasopressin V2 receptor = Vasopressin V2 receptor (Homo sapiens, UniProt P30518)
Chain of Vasopressin V2 receptor (P30518 whole entry): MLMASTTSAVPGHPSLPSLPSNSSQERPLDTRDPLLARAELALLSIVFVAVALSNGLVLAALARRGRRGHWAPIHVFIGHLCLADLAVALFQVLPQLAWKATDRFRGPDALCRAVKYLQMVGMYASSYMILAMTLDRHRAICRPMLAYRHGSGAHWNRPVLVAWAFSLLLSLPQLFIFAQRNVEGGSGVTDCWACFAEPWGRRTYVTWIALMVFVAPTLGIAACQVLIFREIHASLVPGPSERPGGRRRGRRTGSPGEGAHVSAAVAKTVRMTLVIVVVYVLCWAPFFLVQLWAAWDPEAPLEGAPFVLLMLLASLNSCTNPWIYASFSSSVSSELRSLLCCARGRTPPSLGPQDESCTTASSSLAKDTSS

Adenosine receptor A3 = target: T5, Adenosine receptor A3 (Homo sapiens, UniProt P0DMS8)
T5 sequence (P0DMS8 whole entry): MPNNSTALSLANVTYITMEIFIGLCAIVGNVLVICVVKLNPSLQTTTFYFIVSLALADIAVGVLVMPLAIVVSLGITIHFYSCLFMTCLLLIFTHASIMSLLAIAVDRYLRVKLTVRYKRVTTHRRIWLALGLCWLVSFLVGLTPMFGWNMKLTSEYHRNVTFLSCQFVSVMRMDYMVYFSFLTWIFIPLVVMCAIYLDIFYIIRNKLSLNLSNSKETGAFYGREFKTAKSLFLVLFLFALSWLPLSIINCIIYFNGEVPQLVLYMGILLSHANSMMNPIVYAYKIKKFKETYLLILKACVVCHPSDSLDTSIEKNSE

[6] = target: T2, Sodium-dependent dopamine transporter; remark: listed apart in the source
[7] = target: T6, Muscarinic acetylcholine receptor M2 (Homo sapiens, UniProt P08172); format: functional, cell-based
T6 sequence (P08172 whole entry): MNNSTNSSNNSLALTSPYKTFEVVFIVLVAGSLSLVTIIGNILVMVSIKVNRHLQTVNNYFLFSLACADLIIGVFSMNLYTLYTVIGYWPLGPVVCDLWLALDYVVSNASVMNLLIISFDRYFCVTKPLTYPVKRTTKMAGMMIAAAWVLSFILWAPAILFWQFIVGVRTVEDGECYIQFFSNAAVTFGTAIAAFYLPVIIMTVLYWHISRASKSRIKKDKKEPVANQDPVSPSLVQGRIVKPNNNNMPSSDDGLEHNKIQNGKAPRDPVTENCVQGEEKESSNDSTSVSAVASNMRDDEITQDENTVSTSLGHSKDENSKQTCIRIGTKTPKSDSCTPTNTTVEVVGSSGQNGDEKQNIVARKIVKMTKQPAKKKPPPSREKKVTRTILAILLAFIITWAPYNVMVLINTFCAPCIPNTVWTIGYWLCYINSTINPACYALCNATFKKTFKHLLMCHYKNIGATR

[8] = target: Neuronal acetylcholine receptor subunit alpha-4 (Homo sapiens, UniProt P43681)
Chain of Neuronal acetylcholine receptor subunit alpha-4 (P43681 whole entry): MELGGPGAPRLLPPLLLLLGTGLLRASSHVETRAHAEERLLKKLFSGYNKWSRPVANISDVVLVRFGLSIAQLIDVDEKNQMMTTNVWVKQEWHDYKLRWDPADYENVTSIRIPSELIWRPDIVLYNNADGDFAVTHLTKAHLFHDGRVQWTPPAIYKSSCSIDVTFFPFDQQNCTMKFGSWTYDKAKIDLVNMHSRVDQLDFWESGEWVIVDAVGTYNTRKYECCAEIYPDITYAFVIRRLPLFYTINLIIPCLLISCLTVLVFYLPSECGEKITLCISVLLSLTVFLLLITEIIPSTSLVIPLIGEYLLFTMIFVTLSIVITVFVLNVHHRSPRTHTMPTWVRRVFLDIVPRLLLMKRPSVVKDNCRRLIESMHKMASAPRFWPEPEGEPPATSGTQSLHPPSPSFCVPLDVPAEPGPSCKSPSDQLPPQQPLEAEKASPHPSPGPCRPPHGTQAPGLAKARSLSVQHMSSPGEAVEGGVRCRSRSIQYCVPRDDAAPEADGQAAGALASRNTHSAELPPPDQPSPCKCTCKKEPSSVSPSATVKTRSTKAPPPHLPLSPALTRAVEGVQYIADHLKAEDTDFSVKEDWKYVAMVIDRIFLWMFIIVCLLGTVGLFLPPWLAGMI
Further: assay procedure not described here.

SMILES	AC50 [1] [µM]	AC50 [2] [µM]	AC50 (Thromboxane A2 receptor) [µM]	AC50 [3] [µM]	AC50 [4] [µM]	AC50 [5] [µM]	AC50 (Vasopressin V2 receptor) [µM]	AC50 (Adenosine receptor A3) [µM]	AC50 [6] [µM]	AC50 [7] [µM]	AC50 [8] [µM]
C=CCN1CC[C@]23CCCC[C@H]2[C@H]1Cc1ccc(O)cc13 [LEVALLORPHAN]	27.6	> 30	> 30	> 30	> 30	> 30					
Nc1ccc(C(=O)Oc2ccccc2)c(O)c1 [PHENYL AMINOSALICYLATE]	> 30	0.235	> 30	0.777	> 30	> 30					
Cc1onc(-c2ccccc2)c1C(=O)N[C@@H]1C(=O)N2[C@@H]1SC(C)(C)[C@@H]2C(=O)O [OXACILLIN]	> 30	> 30	> 30	> 30	> 30	> 30					
CC(N)C12CC3CC(CC(C3)C1)C2 (centres undefined) [RIMANTADINE]							> 10	> 10	> 10	> 10	> 10
CC(=O)Oc1cc(C(F)(F)F)ccc1C(=O)O [TRIFLUSAL]	> 30	> 30	> 30	> 30	> 30	> 30					
Cc1ccccc1C(=O)Nc1ccc(C(=O)N2CCCC(N(C)C)c3ccccc32)cc1 (centres undefined) [MOZAVAPTAN]	5.8	> 30	> 30	> 30	> 30	> 30					
CCOC(=O)C1=C[C@@H](OC(CC)CC)[C@H](NC(C)=O)[C@@H](N)C1 [OSELTAMIVIR]	> 30	> 30	> 30	> 30	> 30	> 30					
C[C@]12C=CC(=O)N[C@@H]1CC[C@@H]1[C@@H]2CC[C@]2(C)[C@@H](C(=O)Nc3cc(C(F)(F)F)ccc3C(F)(F)F)CC[C@@H]12 [DUTASTERIDE]							> 10	> 10	> 10	> 10	> 10
C[N+](C)(C)C[C@H](O)CC(=O)[O-] [LEVOCARNITINE]	> 30	> 30	> 30	> 30	> 30	> 30					
C[C@]1(Cn2ccnn2)[C@H](C(=O)O)N2C(=O)C[C@H]2S1(=O)=O [TAZOBACTAM]	> 30	> 30	> 30	> 30	> 30	> 30					
CN1CCC(=C2c3ccccc3Sc3ccccc32)CC1 [PIMETHIXENE]	0.0145	11.2	> 30	0.142	0.0422	> 30					
COc1c2ccoc2cc2oc(=O)ccc12 [BERGAPTEN]	> 30	> 30	> 30	> 30	> 30	> 30					
CCc1nc(C(N)=O)c(Nc2ccc(N3CCC(N4CCN(C)CC4)CC3)c(OC)c2)nc1NC1CCOCC1 [GILTERITINIB]	> 30	> 30	> 30	> 30	> 30	> 30					
CC(C)(O)CNc1nc(Nc2ccnc(C(F)(F)F)c2)nc(-c2cccc(C(F)(F)F)n2)n1 [ENASIDENIB]	> 30	> 30	> 30	> 30	> 30	> 30					
N#Cc1ccc2c(c1)N(CCCN1CCC(O)CC1)c1ccccc1S2 [PERICIAZINE]	8.8		> 30	5.08		> 30					
C/C=C/C/C=C/CCC(=O)[C@H]1O[C@H]1C(N)=O [CERULENIN]	> 30	> 30	> 30	> 30	> 30	> 30					
CC(CN1CC(=O)NC(=O)C1)N1CC(=O)NC(=O)C1 (centres undefined) [RAZOXANE]	> 30	> 30	> 30	> 30	> 30	> 30					
O=C(O)c1cc(/N=N/c2ccc(O)c(C(=O)O)c2)ccc1O [OLSALAZINE]	> 30	> 30	> 30	> 30	> 30	> 30					
N[C@@H](CS)C(=O)O [CYSTEINE]	> 30	> 30	> 30	> 30	> 30	> 30					
CC[C@H](C)C[C@H](C)CCCCCCCCC(=O)N[C@H]1C[C@@H](O)[C@@H](NCCN)NC(=O)[C@@H]2[C@@H](O)CCN2C(=O)[C@H]([C@H](O)CCN)NC(=O)[C@H]([C@H](O)[C@@H](O)c2ccc(O)cc2)NC(=O)[C@@H]2C[C@@H](O)CN2C(=O)[C@H]([C@@H](C)O)NC1=O [CASPOFUNGIN]	> 30	4.13	> 30	5.03	> 30	> 30					
CC[C@H]1OC(=O)[C@H](C)C(=O)[C@H](C)[C@@H](O[C@@H]2O[C@H](C)C[C@H](N(C)C)[C@H]2O)[C@](C)(OC)C[C@@H](C)C(=O)[C@H](C)[C@H]2N(CCCCn3cnc(-c4cccnc4)c3)C(=O)O[C@]12C [TELITHROMYCIN]	> 30	> 30	> 30	> 30	> 30	> 30					
OC[C@H]1O[C@@H](c2ccc(F)c(Cc3cc4ccccc4s3)c2)[C@H](O)[C@@H](O)[C@@H]1O [IPRAGLIFLOZIN]	> 30	7.69	> 30	> 30	> 30	> 30					
O=C1/C(=C2\Nc3ccc(S(=O)(=O)O)cc3C2=O)Nc2ccc(S(=O)(=O)O)cc21 [INDIGOTINDISULFONATE]	> 30	> 30	> 30	> 30	> 30	> 30					
COc1ccc(CC2c3cc(OC)c(OC)cc3CC[N+]2(C)CCC(=O)OCCCCCOC(=O)CC[N+]2(C)CCc3cc(OC)c(OC)cc3C2Cc2ccc(OC)c(OC)c2)cc1OC (centres undefined)							> 30	> 30	> 30	> 30	3.63
CC(CCc1ccccc1)NCC(O)c1ccc(O)c(C(N)=O)c1 (centres undefined) [LABETALOL]	0.104	2.22	> 30	4.04		> 30					
O=C1CN(/N=C/c2ccc(-c3ccc([N+](=O)[O-])cc3)o2)C(O)=N1 [DANTROLENE]							> 10	> 30	> 10	> 10	> 10
